Measurements from PubChem BioAssay (NCI).
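Grown in 96-well plates, cells were treated for 48 hours with each compound at five concentrations. Insufficient inhibition: endpoint recorded as highest concentration tested. TGI: total growth inhibition.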

Columns and labels:
Assay in all cases: NCI anticancer screen, dose series, 48 h
[1] = system: A498 renal
[2] = system: HOP-92 NSCLC
[3] = system: A549 NSCLC
[4] = system: SK-MEL-28 melanoma
[5] = system: TK-10 renal
[6] = system: COLO 205 colon
[7] = system: MCF7 breast
[8] = system: HS 578T breast
[9] = system: HCT-116 colon
[10] = system: NCI/ADR-RES ovarian
[11] = system: BT-549 breast
[12] = system: NCI-H460 lung
[13] = system: MDA-N
[14] = system: U251 CNS
[15] = system: HT29 colon
[16] = system: PC-3 prostate
[17] = system: CAKI-1 renal
[18] = system: SNB-75 CNS
[19] = system: OVCAR-3 ovarian
[20] = system: T-47D breast
[21] = system: OVCAR-4 ovarian
[22] = system: SW-620 colon
[23] = system: DU-145 prostate
[24] = system: SK-MEL-2 melanoma
[25] = system: MDA-MB-435
[26] = system: SF-295 CNS
[27] = system: M14 melanoma
[28] = system: SK-MEL-5 melanoma
[29] = system: UO-31 renal
[30] = system: OVCAR-8 ovarian
[31] = system: 786-0 renal
[32] = system: SR leukemia
[33] = system: SNB-19 CNS
[34] = system: SF-268 CNS
[35] = system: MOLT-4 leukemia
[36] = system: K-562 leukemia
[37] = system: SK-OV-3 ovarian
[38] = system: RPMI-8226 leukemia
[39] = system: MDA-MB-231 breast
[40] = system: CCRF-CEM leukemia
[41] = system: OVCAR-5 ovarian
[42] = system: LOX IMVI melanoma
[43] = system: NCI-H226 lung
[44] = system: ACHN renal
[45] = system: HCT-15 colon
[46] = system: EKVX NSCLC
[47] = system: HOP-62 NSCLC
[48] = system: SN12C renal
[49] = system: SF-539 CNS
[50] = system: IGROV1 ovarian
[51] = system: NCI-H522 lung
[52] = system: HL-60(TB) leukemia
[53] = system: KM12 colon
[54] = system: NCI-H23 lung
[55] = system: UACC-62 melanoma
[56] = system: RXF 393 renal
[57] = system: MALME-3M melanoma
[58] = system: HCC-2998 colon
[59] = system: UACC-257 melanoma

## CC(=O)C1(c2ccccc2)CCN(Cn2sc3nc(C)cc(C)c3c2=O)CC1
[1]
  TGI: > 100 µM
[2]
  TGI: > 100 µM
[3]
  TGI: > 100 µM
[4]
  TGI: 93.1 µM
[5]
  TGI: 36.1 µM
[6]
  TGI: 33.8 µM
[7]
  TGI: > 100 µM
[8]
  TGI: > 100 µM
[9]
  TGI: 52 µM
[10]
  TGI: > 100 µM
[11]
  TGI: > 100 µM
[12]
  TGI: 34.1 µM
[13]
  TGI: 41 µM
[14]
  TGI: > 100 µM
[15]
  TGI: 36.9 µM
[16]
  TGI: > 100 µM
[17]
  TGI: > 100 µM
[18]
  TGI: 57.3 µM
[19]
  TGI: > 100 µM
[20]
  TGI: > 100 µM
[21]
  TGI: 48 µM
[22]
  TGI: > 100 µM
[23]
  TGI: > 100 µM
[24]
  TGI: > 100 µM
[25]
  TGI: 59.8 µM
[26]
  TGI: > 100 µM
[27]
  TGI: 71.6 µM
[28]
  TGI: > 100 µM
[29]
  TGI: 31.8 µM
[30]
  TGI: 74.6 µM
[31]
  TGI: 30.6 µM
[32]
  TGI: > 100 µM
[33]
  TGI: > 100 µM
[34]
  TGI: > 100 µM
[35]
  TGI: 77.3 µM
[36]
  TGI: > 100 µM
[37]
  TGI: > 100 µM
[38]
  TGI: > 100 µM
[39]
  TGI: > 100 µM
[40]
  TGI: > 100 µM
[41]
  TGI: 39 µM
[42]
  TGI: 57.8 µM
[43]
  TGI: > 100 µM
[44]
  TGI: 33.5 µM
[45]
  TGI: 72.8 µM
[46]
  TGI: 58.1 µM
[47]
  TGI: > 100 µM
[48]
  TGI: 49.8 µM
[49]
  TGI: 50.9 µM
[50]
  TGI: > 100 µM
[51]
  TGI: 29 µM
[52]
  TGI: 52.5 µM
[53]
  TGI: > 100 µM
[54]
  TGI: 41.6 µM
[55]
  TGI: > 100 µM
[56]
  TGI: 39.3 µM
[57]
  TGI: 41.5 µM
[58]
  TGI: 72.7 µM

## COC(=O)c1cc(C#N)[nH]c1-c1ccsc1
[1]
  TGI: > 100 µM
[2]
  TGI: > 100 µM
[3]
  TGI: > 100 µM
[4]
  TGI: > 100 µM
[5]
  TGI: > 100 µM
[6]
  TGI: > 100 µM
[7]
  TGI: > 100 µM
[8]
  TGI: > 100 µM
[9]
  TGI: > 100 µM
[10]
  TGI: > 100 µM
[11]
  TGI: > 100 µM
[13]
  TGI: > 100 µM
[14]
  TGI: > 100 µM
[15]
  TGI: > 100 µM
[16]
  TGI: > 100 µM
[17]
  TGI: > 100 µM
[18]
  TGI: > 100 µM
[19]
  TGI: > 100 µM
[20]
  TGI: > 100 µM
[21]
  TGI: > 100 µM
[22]
  TGI: > 100 µM
[23]
  TGI: > 100 µM
[24]
  TGI: > 100 µM
[25]
  TGI: > 100 µM
[59]
  TGI: > 100 µM
[26]
  TGI: > 100 µM
[27]
  TGI: > 100 µM
[28]
  TGI: > 100 µM
[29]
  TGI: > 100 µM
[30]
  TGI: > 100 µM
[31]
  TGI: > 100 µM
[32]
  TGI: > 100 µM
[34]
  TGI: > 100 µM
[35]
  TGI: > 100 µM
[36]
  TGI: > 100 µM
[37]
  TGI: > 100 µM
[38]
  TGI: > 100 µM
[39]
  TGI: > 100 µM
[40]
  TGI: > 100 µM
[41]
  TGI: > 100 µM
[42]
  TGI: > 100 µM
[43]
  TGI: > 100 µM
[44]
  TGI: > 100 µM
[45]
  TGI: > 100 µM
[46]
  TGI: > 100 µM
[47]
  TGI: > 100 µM
[48]
  TGI: > 100 µM
[50]
  TGI: > 100 µM
[51]
  TGI: > 100 µM
[52]
  TGI: 48.7 µM
[53]
  TGI: > 100 µM
[54]
  TGI: > 100 µM
[55]
  TGI: > 100 µM
[56]
  TGI: > 100 µM
[57]
  TGI: > 100 µM
[58]
  TGI: > 100 µM

## O=C(NO)c1cccc(OCc2ccc(Br)cc2)c1
[1]
  TGI: 32.2 µM
[2]
  TGI: 46.7 µM
[3]
  TGI: > 58.5 µM
[4]
  TGI: > 100 µM
[5]
  TGI: > 100 µM
[6]
  TGI: 27.4 µM
[7]
  TGI: > 65 µM
[8]
  TGI: 75.4 µM
[9]
  TGI: 15.2 µM
[10]
  TGI: 28.4 µM
[11]
  TGI: > 100 µM
[12]
  TGI: 14 µM
[13]
  TGI: 27.5 µM
[14]
  TGI: > 53.8 µM
[15]
  TGI: 35.8 µM
[16]
  TGI: 49.9 µM
[17]
  TGI: 15 µM
[18]
  TGI: > 54.1 µM
[19]
  TGI: > 48.1 µM
[20]
  TGI: 23.9 µM
[21]
  TGI: > 100 µM
[22]
  TGI: > 100 µM
[23]
  TGI: 13.7 µM
[24]
  TGI: 50 µM
[25]
  TGI: 38.7 µM
[59]
  TGI: > 100 µM
[26]
  TGI: > 62.1 µM
[27]
  TGI: 20.1 µM
[28]
  TGI: > 27.2 µM
[29]
  TGI: 14.4 µM
[30]
  TGI: 17.4 µM
[31]
  TGI: 10.9 µM
[32]
  TGI: 37.3 µM
[33]
  TGI: > 46.4 µM
[34]
  TGI: 38.1 µM
[35]
  TGI: 18.3 µM
[36]
  TGI: > 47.5 µM
[37]
  TGI: > 55.7 µM
[38]
  TGI: 24.3 µM
[39]
  TGI: 86.3 µM
[40]
  TGI: > 20 µM
[41]
  TGI: > 70.7 µM
[42]
  TGI: > 34.8 µM
[43]
  TGI: 27.6 µM
[44]
  TGI: 12.8 µM
[45]
  TGI: > 100 µM
[46]
  TGI: > 79.3 µM
[47]
  TGI: 52.8 µM
[48]
  TGI: 12.8 µM
[49]
  TGI: > 41.4 µM
[50]
  TGI: 35 µM
[51]
  TGI: 16.2 µM
[52]
  TGI: 21.9 µM
[53]
  TGI: > 64.9 µM
[54]
  TGI: 17.7 µM
[55]
  TGI: 20.6 µM
[56]
  TGI: 25.6 µM
[57]
  TGI: 17.6 µM
[58]
  TGI: 28.4 µM

## COC(=O)C1([C@@H]2C[C@@H](O)[C@]3(C)CC/C=C(\C)CCC[C@H](C)[C@H](O)[C@@H]2O3)CC1
[1]
  TGI: > 100 µM
[2]
  TGI: > 100 µM
[3]
  TGI: > 100 µM
[4]
  TGI: > 100 µM
[5]
  TGI: > 100 µM
[6]
  TGI: > 100 µM
[7]
  TGI: > 100 µM
[8]
  TGI: > 100 µM
[9]
  TGI: > 100 µM
[10]
  TGI: > 100 µM
[11]
  TGI: > 100 µM
[12]
  TGI: > 100 µM
[13]
  TGI: > 100 µM
[14]
  TGI: > 100 µM
[15]
  TGI: > 100 µM
[16]
  TGI: > 100 µM
[17]
  TGI: > 100 µM
[18]
  TGI: 17.8 µM
[19]
  TGI: > 100 µM
[20]
  TGI: > 100 µM
[21]
  TGI: > 100 µM
[22]
  TGI: > 100 µM
[23]
  TGI: > 100 µM
[24]
  TGI: > 100 µM
[25]
  TGI: > 100 µM
[59]
  TGI: > 100 µM
[26]
  TGI: > 100 µM
[27]
  TGI: > 100 µM
[28]
  TGI: > 100 µM
[29]
  TGI: 60.3 µM
[30]
  TGI: > 100 µM
[31]
  TGI: > 100 µM
[32]
  TGI: 95.3 µM
[33]
  TGI: > 100 µM
[34]
  TGI: > 100 µM
[35]
  TGI: 88.8 µM
[36]
  TGI: > 100 µM
[37]
  TGI: > 100 µM
[38]
  TGI: > 100 µM
[39]
  TGI: > 100 µM
[40]
  TGI: > 100 µM
[41]
  TGI: > 100 µM
[42]
  TGI: > 100 µM
[43]
  TGI: 69.2 µM
[44]
  TGI: > 100 µM
[45]
  TGI: > 100 µM
[46]
  TGI: > 100 µM
[47]
  TGI: > 100 µM
[48]
  TGI: > 100 µM
[49]
  TGI: > 100 µM
[50]
  TGI: > 100 µM
[51]
  TGI: > 100 µM
[52]
  TGI: > 100 µM
[53]
  TGI: > 100 µM
[54]
  TGI: > 100 µM
[55]
  TGI: > 100 µM
[56]
  TGI: > 100 µM
[57]
  TGI: > 100 µM
[58]
  TGI: > 100 µM
